How the values were obtained:
[1] = system: hair growth on clipped dorsal skin of female CD-1 mice; experiment: Hair regrowth on clipped dorsal skin of mice after twice-weekly topical treatment; type: in vivo, mouse; details: for effect on hair growth (figure legend): 10 nmol in 200 μL acetone applied topically to clipped hair area, mice; for mice demonstrating partial patchy hair regrowth: 10 nmol topically twice weekly from 6th week; for hair growth in pre-existing anagen follicles: 10 week old mice in anagen phase, twice weekly topical
Method: Female CD-1 mice, 4, 5, or 9 weeks of age, were purchased from Charles River Laboratories, Raleigh, N.C. Mice were kept in an animal facility at least 1 week prior to use and were fed rodent chow (Agway Food, Granville Milling and Co., Creedmoor, N.C.) and water ad libitum. The mice were kept on corn cob bedding and placed on a 12 hour light/dark cycle. Female CD-1 mice were clipped on the dorsal region (approximately 4×2.5 cm area) with electric clippers. The mice were then treated twice weekly on the clipped dorsal surface with either (a) 10 nmol 17-β-estradiol in 200 μl acetone or (b) acetone alone. For the studies with the estrogen receptor antagonist, ICI 182,780 was dissolved in acetone and 200 μl was topically applied twice weekly. Mice were treated with the estrogen receptor antagonist ICI 182,780 as provided in Example 1. Twice-weekly treatment of clipped dorsal skin was begun when the mice were 6 weeks of age, with either (a) 10 nmol ICI 182,780 in acetone or (b) acetone alone. […] In order to determine if 17-β-estradiol could influence hair growth, six week old CD-1 female mice were clipped on the dorsal surface with electric clippers and then treated twice weekly from the 6th week of age to the 16th week of age with topical applications of either (a) 10 nmol 17-β-estradiol or (b) acetone vehicle alone. […] In order to determine if 17-β-estradiol could block hair growth in pre-existing anagen follicles, 10 week old mice in the anagen phase of the hair cycle were treated twice weekly with 17-β-estradiol applied topically to clipped dorsal skin.

[2] = system: hair follicles of female CD-1 mice; experiment: Histological analysis of skin to determine the phase of the hair cycle; type: in vivo, mouse
Method: Female CD-1 mice, 4, 5, or 9 weeks of age, were purchased from Charles River Laboratories, Raleigh, N.C. Mice were kept in an animal facility at least 1 week prior to use and were fed rodent chow (Agway Food, Granville Milling and Co., Creedmoor, N.C.) and water ad libitum. The mice were kept on corn cob bedding and placed on a 12 hour light/dark cycle. Female CD-1 mice were clipped on the dorsal region (approximately 4×2.5 cm area) with electric clippers. The mice were then treated twice weekly on the clipped dorsal surface with either (a) 10 nmol 17-β-estradiol in 200 μl acetone or (b) acetone alone. For the studies with the estrogen receptor antagonist, ICI 182,780 was dissolved in acetone and 200 μl was topically applied twice weekly. […] To determine the effect of 17-β-estradiol on the hair follicle cycle, mice were treated with 17-β-estradiol or acetone alone twice weekly from the 4th week of age to the 15th week of age. Every week, histological analysis of the skin from 3 mice from each group was conducted to determine the phase of the hair cycle. Representative skin histology sections from acetone- and 17-β-estradiol-treated mice at 7, 9, and 11 weeks of age are shown in FIGS. 6A-6F. As expected, at 7 weeks of age all follicles were in telogen in both the 17-β-estradiol and the acetone-treated mice.

C[C@]12CC[C@@H]3c4ccc(O)cc4CC[C@H]3[C@@H]1CC[C@@H]2O [17-β-estradiol]
effect on hair growth (figure legend) [1]: blocks hair regrowth | effect on dorsal hair regrowth ([1]; 10 nmol topically twice weekly from 6th to 16th week of age): potent inhibitory effect | full hair regrowth ([1]; 10 nmol topically twice weekly from 6th to 16th week of age, by 16 weeks of age, 100% of acetone mice regrown by 13 weeks): did not demonstrate any full hair regrowth | partial patchy hair regrowth, share of total clipped area ([1]; 10 nmol topically twice weekly from 6th to 16th week of age, some of the treated mice): less than 10% | mice demonstrating partial patchy hair regrowth ([1]; at 12 weeks of age): 20% | mice demonstrating partial patchy hair regrowth ([1]; by 15 weeks): 40% | hair growth in pre-existing anagen follicles ([1]; treatment continued for 10 weeks): no hair growth was apparent | hair growth in pre-existing anagen follicles ([1]; within two weeks, all acetone mice developed full coat): no longer growing hair | hair follicle phase ([2]; 17-β-estradiol twice weekly from 4th week of age, 15 weeks of age, termination of experiment): still arrested in telogen | hair follicle phase ([2]; 17-β-estradiol twice weekly from 4th week of age, at 7 weeks of age, acetone mice also in telogen): telogen | hair follicle phase ([2]; 17-β-estradiol twice weekly from 4th week of age, by 9 weeks of age, acetone mice entered anagen): remained in telogen | hair follicle phase ([2]; 17-β-estradiol twice weekly from 4th week of age, by 11 weeks of age, acetone mice in mid to late anagen): remained in telogen

C[C@]12CC[C@@H]3c4ccc(O)cc4C[C@@H](CCCCCCCCC[S+]([O-])CCCC(F)(F)C(F)(F)F)[C@H]3[C@@H]1CC[C@@H]2O (stereo partly drawn) [ICI 182,780, 7α-[9-(4,4,5,5,5,-pentafluoropentylsulfinyl)nonyl]estra-1,3,5(10)-triene-3,17β-diol]
effect on hair growth (figure legend) [1]: causes hair growth during the second telogen phase | mice demonstrating full hair regrowth ([1]; 10 nmol in acetone topically twice weekly from 6 weeks of age, by 9 weeks of age, no hair growth in acetone-treated mice): 60% | mice that developed a full coat of hair ([1]; 10 nmol in acetone topically twice weekly from 6 weeks of age, by 10 weeks of age, 40% of acetone-treated mice): all | hair follicle phase ([2]; 10 nmol ICI 182,780 twice weekly from 6 weeks, at 7 weeks of age, acetone mice in second telogen): early to mid anagen | hair follicle phase ([2]; 10 nmol ICI 182,780 twice weekly from 6 weeks, at eleven weeks of age, control mice in mid to late anagen): entered telogen | hair follicle phase ([2]; 10 nmol ICI 182,780 twice weekly from 6 weeks, by eight weeks of age, acetone mice in telogen): mid to late anagen | effect on duration of anagen ([2]; conclusion from histology at eleven weeks of age): does not prolong anagen
